Data taken from patent US20230013669A1, “Antibacterial Treatment Using a Cannabinoid and an Active Agent” (priority 2019, published 2023).
Values joined by “and” are separate entries in the source; they are usually repeats but may differ in a detail not shown here. Equal entries are not always repeated.

What was measured:
Format in all cases: cell-based
[1] = system: Pseudomonas aeruginosa ATCC 27853 (GN_042); assay: MIC micro-broth dilution assay (Example 1 method); settings: GN_042
Method: (§5) The plates were covered and incubated at 37° C. for 18-20 h.
(§6) Optical density was read at 600 nm (OD600) using Tecan M1000 Pro Spectrophotometer. […] Analysis was performed using Microsoft Excel.

[2] = system: Acinetobacter baumannii ATCC 19606 (GN_034); assay: MIC micro-broth dilution assay (Example 1 method); settings: GN_034
Method: as §5, §6

[3] = system: Pseudomonas aeruginosa FADDI-PA067 (GN_177), Polymyxin resistant; assay: MIC micro-broth dilution assay (Example 1 method); settings: GN_177
Method: (§1) Analysis was performed using Microsoft Excel.

[4] = system: Acinetobacter baumannii 03.021.1 (GN_039), Colistin resistant; assay: MIC micro-broth dilution assay (Example 1 method); settings: for Minimum Inhibitory Concentration (MIC): replicates, listed as MCC_000636
Method: as §1

[5] = system: Klebsiella pneumoniae BAA-2146 (GN_045), NDM-1; assay: MIC micro-broth dilution assay (Example 1 method); settings: Example 9 Table 35, compound alone, replicates, listed as MCC_000636
Method: as §1

[6] = system: Acinetobacter baumannii 03.021.1 (GN_038), Colistin resistant; assay: MIC micro-broth dilution assay (Example 1 method); settings: for Minimum Inhibitory Concentration (MIC): replicates, listed as MCC_000636
Method: as §1

[7] = system: Enterobacter cloacae CI Patercon BoxNo: 79 (GN_016), MDR; assay: MIC micro-broth dilution assay (Example 1 method); settings: for Minimum Inhibitory Concentration (MIC): replicates, listed as MCC_000636
Method: as §1

[8] = system: Escherichia coli HS71 (GN_110), CTX-M; assay: MIC micro-broth dilution assay (Example 1 method); settings: Example 9 Table 35, compound alone, replicates
Method: as §1

[9] = system: Escherichia coli ATCC 25922 (GN_001); assay: MIC micro-broth dilution assay (Example 1 method); settings: GN_001
Method: as §5, §6

[10] = system: Acinetobacter baumannii ATCC 19606 Type Strain (GN_034); assay: MIC broth microdilution, 96-well, visual reading (Example 11); settings: Example 11 Table 41; GN_034; n=4 replicates
Method: (§2) The experiment was performed to investigate the antimicrobial activity of cannabidiol (CBD) against an LPS deficient strain (GN_237 Acinetobacter baumannii, IpxA mutant; Lipid A deficient; obtained by colistin selection from base strain ATCC 19606) and its parent strain (GN_034, Acinetobacter baumannii, ATCC 19606).
(§3) All plates had flat bottom wells and were covered with low-evaporation lids.
(§4) Two biological replicates ×2 technical replicates were conducted on separate days (final n=4). Inhibition of bacterial growth was determined visually, where the MIC was recorded as the lowest compound concentration with no visible growth.

[11] = system: Acinetobacter baumannii AL1851, IpxA mutant; Lipid A deficient (GN_237); assay: as above
Method: as §2, §3, §4

[12] = Example 6 Table 23, compound alone, replicates, listed as MCC_000636
[13] = Example 1 Table 3, compound alone, replicates, listed as MCC_000636
[14] = Example 8 Table 31, compound alone
[15] = Example 9 Table 35, compound alone

With Polymyxin B the “Minimal Inhibitory Concentration (MIC)” value ([1]; Example 1 Table 3, compound alone, replicates) was 1 µg/mL, the “Minimum Inhibitory Concentration (MIC)” value [1, 12] was 0.5 μg/mL (2×) and 2 μg/mL (2×) and the “MIC of Polymyxin B” value ([1]; Example 6 Table 24) was 2 µg/mL. The “Minimal Inhibitory Concentration (MIC)” value [2, 13] was 1 µg/mL and 0.5 µg/mL, the “Minimum Inhibitory Concentration (MIC)” value [2, 12] was 0.25 µg/mL and 0.125 µg/mL and 2 µg/mL and 1 µg/mL and the “MIC of Polymyxin B” value ([2]; Example 6 Table 24) was 1 µg/mL and 2 µg/mL. For the same substance, the “Minimum Inhibitory Concentration (MIC)” value ([3]; Example 8 Table 31, compound alone, replicates) was 2 µg/mL, the “MIC of MCC_00636” value ([3]; Example 8 Table 32) was 2 µg/mL and the “Minimum Inhibitory Concentration (MIC)” value [4, 14] was 0.5 μg/mL and 0.25 μg/mL (3×). For the same substance, the “MIC of MCC_00636” value ([4]; Example 8 Table 32) was 1 µg/mL, the “Minimum Inhibitory Concentration (MIC)” value [4, 15] was 0.5 μg/mL and 0.25 μg/mL (3×) and the “Minimum Inhibitory Concentration (MIC)” value [5] was 0.5 μg/mL and 0.25 μg/mL (3×). For the same substance, the “Minimum Inhibitory Concentration (MIC)” value [6, 14] was 0.125 μg/mL (3×) and 0.25 μg/mL, the “MIC of MCC_00636” value ([6]; Example 8 Table 32) was 1 µg/mL and the “Minimum Inhibitory Concentration (MIC)” value [6, 15] was 0.125 μg/mL (3×) and 0.25 μg/mL. The “Minimum Inhibitory Concentration (MIC)” value [7, 14] was 16 μg/mL and 8 μg/mL (3×), the “MIC of MCC_00636” value ([7]; Example 8 Table 32) was 8 µg/mL and the “Minimum Inhibitory Concentration (MIC)” value [7, 15] was 16 μg/mL and 8 μg/mL (3×). For the same substance, the “Minimum Inhibitory Concentration (MIC)” value [8] was 0.0625 µg/mL, the “Minimal Inhibitory Concentration (MIC)” value [9, 13] was 1 µg/mL and 0.5 µg/mL and the “Minimum Inhibitory Concentration (MIC)” value [9, 12] was 0.25 μg/mL (2×) and 0.5 μg/mL and 1 μg/mL. For the same substance, the “MIC of Polymyxin B” value ([9]; Example 6 Table 24) was 1 µg/mL, the “MIC (Test results)” value [10] was greater than 128 µg/mL and the “activity alone” value ([11]; Example 11, Lipid A deficient GN_237) was “resistant”. The “MIC (Test results)” value ([11]; Example 11 Table 41, GN_237, n=4 replicates) was 128 µg/mL.
